# Test results taken from US12115152B2, “Pan-RAF kinase inhibitor and use thereof” (HEFEI INSTITUTES OF PHYSICAL SCIENCE, CHINESE ACADEMY OF …, priority 2019, dated 2024).
# “And” between values parts separate entries of the source, which are not always exact repeats. Equal values may be shown once. Read-outs that look alike come from different tables or passages of the source.
# Experiments:
# [1] = Pharmacokinetic parameters in rats; format: in vivo, SD rats; conditions: rat
# Method: In the example, SD rats (180-220 g, male) (purchased from Experimental Animal Center of Anhui Medical University, China) were used. The animals were kept in cages ventilated independently with 6 rats per cage. The feeding was performed at a temperature of 20˜26° C. and a humidity of 35-75%. The light condition was 12 hours of lighting/12 hours of darkness. The corncob bedding was refreshed once a week. The rats were fed with foods and drinking water on an ad libitum basis. The rats were marked with a number on the tails. During the experiment, the breeding and use of animals strictly follow the regulations of Association for Assessment and Accreditation of Laboratory Animal Care International.
# Solutions of Compound 16 and Comparative Compound 1 were prepared as follows. 10 mg of the compound to be tested was precisely weighed into a sterile vial, and was dissolved with a small amount of DMSO, and then was made to a constant volume of 5 ml with 5% glucose solution, to give a gavage test solution at a concentration of 2 mg/mL. 0.5 ml of the above gavage test solution at a concentration of 2 mg/mL was precisely taken, and was made to constant volume of 5 ml with 4.5 ml of 5% glucose solution, to give an intravenous injection test solution at a concentration of 0.2 mg/mL. The solution was prepared immediately before being used in the experiment.
# 6 SD rats were randomly divided into two groups, and the synthesized compounds were administered by gavage and tail vein injection, respectively. About 0.3 mL of blood samples were collected from the retro-orbital venous plexus at 0 h before administration and at 5 min, 15 min, 30 min, 1 h, 1.5 h, 2 h, 4 h, 6 h, 9 h, 12 h, 24 h after administration for the gavage group; and at 0 h before administration and at 2 min, 5 min, 15 min, 30 min, 1 h, 2 h, 4 h, 6 h, 9 h, and 12 h after administration for the tail vein group. Each of the collected blood samples was put in a 1.5 mL centrifuge tube with heparin (Sigma, USA). The sample was centrifuged at 6000 rpm for 3 min to separate the plasma. 100 μL of plasma in the upper layer was placed into a new 1.5 mL centrifuge tube, and stored at −80° C. for determination. 10 mg of a standard for the compound to be tested was precisely weighed into a 10 mL volumetric flask, and was dissolved by adding methanol to make a constant volume and mixed uniformly, to give a 1 mg/mL stock solution. The stock solution was then diluted gradually with methanol to give a series of working solutions at concentrations of 0.01, 0.02, 0.05, 0.1, 0.2, 0.5, 1, 2, 5, 10, 20 μg/mL. The working solutions were placed in a refrigerator at 4° C. for later use. 11 centrifuge tubes were used. 10 μL of the above working solutions was respectively added to each of the centrifuge tubes, and then 90 μL of blank rat plasma was respectively added therein. The mixtures were mixed uniformly, so that the concentration of the compound in the rat plasma was 1, 2, 5, 10, 20, 50, 100, 200, 500, 1000, 2000 ng/mL. Then, 20 μL of a solution of caffeine as the internal standard (200 ng/mL) (National Institutes for Food and Drug Control, China) was added therein, and the resultant mixtures were vortexed for 10 s. Next, 400 μL of methanol was added. The resultant mixtures were vortexed for 10 min, and centrifuged at 16000 rpm for 5 min. Thereafter, 70 μL of the supernatant was placed into the inserted pipe of a sampling bottle. 5 μL of the sample was introduced for a LC-MS/MS analysis. A standard curve of the compound in the rat plasma was obtained by means of a linear regression performed by taking the ratio of the peak area of the sample to that of the internal standard As/Ais as the vertical ordinate, taking the concentration C (μg/mL) as the horizontal ordinate, and taking 1/C^2 was taken as a weighting coefficient.
# To 100 μL of the rat plasma to be tested stored at −80° C., 20 μL of a caffeine solution (200 ng/mL) as the internal standard was added. The resultant mixture was vortexed for 10 s. […]
# [2] = tested on: Calu-6 transplanted tumor nude mice; experiment: Toxicity in Calu-6 cell transplanted tumor mouse model; conditions: Calu-6 cell transplanted tumor model, oral daily; Compound 16 50, 100, 200 mg/kg; Comparative Compound 1 100 mg/kg
# [3] = male, Sprague-Dawley, plasma, iv, 1 mg/kg, intravenous injection 1 mg/kg, average n=3
# [4] = male, Sprague-Dawley, plasma, iv, 1 mg/kg, intravenous injection 1 mg/kg, individual rats #1-#3
# [5] = intravenous injection 1 mg/kg, average n=3
# [6] = intravenous injection 1 mg/kg, individual rats #1-#3, listed as Comparative Compound 1, 1 mg/kg
# [7] = oral administration (gavage) 10 mg/kg, average n=3
# [8] = oral administration (gavage) 10 mg/kg, individual rats #1-#3, listed as Comparative Compound 1, 10 mg/kg
structure (smiles),measurement,setting,value
"Cc1ccc(NC(=O)c2cccc(C(F)(F)F)c2)cc1-n1cc(-c2cccnc2)cn1 [compound 1, 3-trifluoromethyl-N-(4-methyl-3-(4-(pyrid-3-yl)-1H-pyrazol-1-yl)phenyl)benzamide, reference compound]",AUC(0-inf),"[1]; male, SD, plasma, po, 10 mg/kg, oral administration (gavage) 10 mg/kg, average n=3",1020 ng·h/mL
same,Tmax,"[1]; male, SD, plasma, po, 10 mg/kg, oral administration (gavage) 10 mg/kg, average n=3, read-out: Tmax",30 min
same,half-life,"[1]; male, SD, plasma, po, 10 mg/kg, oral administration (gavage) 10 mg/kg, average n=3, read-out: T½ (converted)",54.4 min
same,Tmax,"[1]; male, SD, plasma, po, 10 mg/kg, oral administration (gavage) 10 mg/kg, individual rats #1-#3, read-out: Tmax",30 min
same,half-life,"[1]; male, SD, plasma, po, 10 mg/kg, oral administration (gavage) 10 mg/kg, individual rats #1-#3, read-out: T½ (converted)",60.2 min
same,AUC(0-inf),[1]; [3],92.5 ng·h/mL
same,clearance,[1]; [3],188 mL/min/kg
same,AUC0-t,"[1]; male, Sprague-Dawley, plasma, iv, 1 mg/kg, intravenous injection 1 mg/kg, average n=3, read-out: AUC0-t",91.6 ng·h/mL
same,C0,"[1]; male, Sprague-Dawley, plasma, iv, 1 mg/kg, intravenous injection 1 mg/kg, average n=3, read-out: C0",348 ng/mL
same,Cmax,"[1]; male, Sprague-Dawley, plasma, iv, 1 mg/kg, intravenous injection 1 mg/kg, average n=3, read-out: Cmax",262 ng/mL
same,MRT last,"[1]; male, Sprague-Dawley, plasma, iv, 1 mg/kg, intravenous injection 1 mg/kg, average n=3, read-out: MRT0-t",34 min
same,MRT inf,"[1]; male, Sprague-Dawley, plasma, iv, 1 mg/kg, intravenous injection 1 mg/kg, average n=3, read-out: MRT0-∞",37 min
same,Tmax,"[1]; male, Sprague-Dawley, plasma, iv, 1 mg/kg, intravenous injection 1 mg/kg, average n=3, read-out: Tmax",1.98 min
same,half-life,"[1]; male, Sprague-Dawley, plasma, iv, 1 mg/kg, intravenous injection 1 mg/kg, average n=3, read-out: T½ (converted)",42.9 min
same,Vd,"[1]; male, Sprague-Dawley, plasma, iv, 1 mg/kg, intravenous injection 1 mg/kg, average n=3, read-out: Vz",12 L/kg
same,AUC(0-inf),[1]; [4],84 ng·h/mL
same,clearance,[1]; [4],198 mL/min/kg
same,AUC0-t,"[1]; male, Sprague-Dawley, plasma, iv, 1 mg/kg, intravenous injection 1 mg/kg, individual rats #1-#3, read-out: AUC0-t",83.3 ng·h/mL
same,C0,"[1]; male, Sprague-Dawley, plasma, iv, 1 mg/kg, intravenous injection 1 mg/kg, individual rats #1-#3, read-out: C0",260 ng/mL
same,Cmax,"[1]; male, Sprague-Dawley, plasma, iv, 1 mg/kg, intravenous injection 1 mg/kg, individual rats #1-#3, read-out: Cmax",200 ng/mL
same,MRT last,"[1]; male, Sprague-Dawley, plasma, iv, 1 mg/kg, intravenous injection 1 mg/kg, individual rats #1-#3, read-out: MRT0-t",36.3 min
same,MRT inf,"[1]; male, Sprague-Dawley, plasma, iv, 1 mg/kg, intravenous injection 1 mg/kg, individual rats #1-#3, read-out: MRT0-∞",38.5 min
same,Tmax,"[1]; male, Sprague-Dawley, plasma, iv, 1 mg/kg, intravenous injection 1 mg/kg, individual rats #1-#3, read-out: Tmax",1.98 min
same,half-life,"[1]; male, Sprague-Dawley, plasma, iv, 1 mg/kg, intravenous injection 1 mg/kg, individual rats #1-#3, read-out: T½ (converted)",38.8 min
same,bioavailability,"[1]; male, Sprague-Dawley, plasma, oral, 10 mg/kg, oral administration (gavage) 10 mg/kg vs intravenous 1 mg/kg, average n=3, read-out: F (oral bioavailability)",111%
same,AUC0-t,"[1]; male, Sprague-Dawley, plasma, po, 10 mg/kg, oral administration (gavage) 10 mg/kg, average n=3, read-out: AUC0-t",1010 ng·h/mL
same,Cmax,"[1]; male, Sprague-Dawley, plasma, po, 10 mg/kg, oral administration (gavage) 10 mg/kg, average n=3, read-out: Cmax",576 ng/mL
same,MRT last,"[1]; male, Sprague-Dawley, plasma, po, 10 mg/kg, oral administration (gavage) 10 mg/kg, average n=3, read-out: MRT0-t",93.7 min
same,MRT inf,"[1]; male, Sprague-Dawley, plasma, po, 10 mg/kg, oral administration (gavage) 10 mg/kg, average n=3, read-out: MRT0-∞",98.5 min
same,MRT last,"[1]; male, Sprague-Dawley, plasma, po, 10 mg/kg, oral administration (gavage) 10 mg/kg, individual rats #1-#3, read-out: MRT0-t",109 min
same,MRT inf,"[1]; male, Sprague-Dawley, plasma, po, 10 mg/kg, oral administration (gavage) 10 mg/kg, individual rats #1-#3, read-out: MRT0-∞",115 min
same,AUMC0-t,[1]; [5],53.50 hr*hr*ng/ml
same,AUMC0-∞,[1]; [5],58.31 hr*hr*ng/ml
same,AUC0-t,[1]; [6],71.86 ng·h/mL and 119.59 ng·h/mL
same,AUC0-∞,[1]; [6],73.08 ng·h/mL and 120.51 ng·h/mL
same,AUMC0-t,[1]; [6],50.39 hr*hr*ng/ml and 31.52 hr*hr*ng/ml and 78.58 hr*hr*ng/ml
same,AUMC0-∞,[1]; [6],53.89 hr*hr*ng/ml and 37.99 hr*hr*ng/ml and 83.06 hr*hr*ng/ml
same,C0,[1]; [6],402.4 ng/mL and 380.8 ng/mL
same,Cl,[1]; [6],228.07 mL/min/kg and 138.3 mL/min/kg
same,Cmax,[1]; [6],285.0 ng/mL and 300.0 ng/mL
same,MRT0-t,[1]; [6],26.3 min and 39.4 min
same,MRT0-∞,[1]; [6],31.2 min and 41.3 min
same,T½,[1]; [6],54.4 min and 35.5 min
same,Vz,[1]; [6],11.101 L/kg and 17.886 L/kg and 7.085 L/kg
same,F (oral bioavailability),"[1]; oral administration (gavage) 10 mg/kg vs intravenous 1 mg/kg, individual rats #1-#3, listed as Comparative Compound 1",31.2% and 133.6% and 167.2%
same,AUMC0-t,[1]; [7],1474 hr*hr*ng/ml
same,AUMC0-∞,[1]; [7],1566 hr*hr*ng/ml
same,Cl,[1]; [7],273.12 mL/min/kg
same,Vz,[1]; [7],22.672 L/kg
same,AUC0-t,[1]; [8],285.6 ng·h/mL and 1217 ng·h/mL and 1532 ng·h/mL
same,AUC0-∞,[1]; [8],289.0 ng·h/mL and 1236 ng·h/mL and 1547 ng·h/mL
same,AUMC0-t,[1]; [8],518.7 hr*hr*ng/ml and 1889 hr*hr*ng/ml and 2013 hr*hr*ng/ml
same,AUMC0-∞,[1]; [8],554.4 hr*hr*ng/ml and 2023 hr*hr*ng/ml and 2121 hr*hr*ng/ml
same,Cl,[1]; [8],576.77 mL/min/kg and 134.8 mL/min/kg and 107.8 mL/min/kg
same,Cmax,[1]; [8],138 ng/mL and 579 ng/mL and 1010 ng/mL
same,MRT0-t,[1]; [8],93.12 min and 78.84 min
same,MRT0-∞,[1]; [8],98.22 min and 82.26 min
same,T½,[1]; [8],49.3 min and 53.6 min
same,Vz,[1]; [8],50.104 L/kg and 9.579 L/kg and 8.334 L/kg
same,toxicity,[2],very strong toxicity as all mice died on Day 8
